Measurements as given in US11617796B2, “Conjugate of minoxidil and peptide” (CAREGEN CO., LTD., priority 2016, dated 2023).
Where no end group is shown, it is not given here.

Legend:
β-catenin = test: Translocation of β-catenin to nucleus in hair follicle dermal papilla cells (Western blotting); type: cell-based; settings: 5 and 50 uM, 24 hours, same concentration; FIG. 10
Method: Hair follicle dermal papilla cells were placed in each well of a 6-well plate at 1×10^3 cells/well. Incubation was performed in a CO2 incubator for 24 hours. […] Protein was extracted using a protein extraction kit (extraction of each of the nuclear/cytoplasmic protein). Western blotting was carried out in the same manner as in Example 3-2 except that an anti-beta-catenin antibody, an anti-HDAC antibody, an anti-alpha tubulin antibody as primary antibodies were used.

VEGF = VEGF mRNA amount by RT-PCR in HUVECs; type: cell-based, human; settings: 5 and 50 uM, 24 hours, compared with Minoxidil, FIGS. 4 to 6
Method: (§1) VEGF was expressed by HUVECs and TGFβ1 was expressed by hair follicle dermal papilla cells. Two cells were placed in each 6-well plate at a rate of 1×10^3 cells/well. After 24 hours of incubation in a CO2 incubator, the medium was replaced with serum-free DMEM medium. Three compounds of the present invention and Minoxidil were added to the cells at 5 uM and 50 uM concentration, respectively, and incubated for 24 hours. After incubated cells were harvested, RNA was extracted using an RNA extraction kit and RT-PCR was performed to confirm the degree of expression of VEGF and TGFβ1.

TGFβ1 = TGFβ1 mRNA amount by RT-PCR in hair follicle dermal papilla cells; type: cell-based, human; settings: 5 and 50 uM, 24 hours, compared with Minoxidil, FIGS. 4 to 6
Method: as §1

phospho-Smad1/5/8 = test: Translocation of phospho-Smad1/5/8 to nucleus in the presence of BMP2 (Western blotting); type: cell-based; settings: in the presence of BMP2, 5 and 50 uM, compared with Minoxidil; FIGS. 12 and 13
Method: Hair follicle dermal papilla cells were placed in each well of a 6-well plate at 1×10^3 cells/well. Incubation was performed in a CO2 incubator for 24 hours. After replacing the medium with serum-free DMEM medium, the Minoxidil, the Minoxidil-WINT, and the WINT were added respectively to the cells at a concentration of 5 uM and 50 uM, and then incubated for 24 hours. Protein was extracted using a protein extraction kit (extraction of each of the nuclear/cytoplasmic protein). Western blotting was carried out in the same manner as in Example 3-2 except that an anti-beta-catenin antibody, an anti-HDAC antibody, an anti-alpha tubulin antibody as primary antibodies were used.
The experiment was carried out in the same manner as in Example 5, except that in the presence of BMP2, the Minoxidil-Nokkin is used instead of the Minoxidil-WINT, and an anti-P-Smad1/5/8 antibody and an anti-HDAC1 antibody were used as primary antibodies.

Compound	degree of translocation of β-catenin to the nucleus (β-catenin)	expression of VEGF (mRNA) (VEGF)	expression of TGFβ1 (mRNA) (TGFβ1)	delivery of P-Smad1/5/8 into the nucleus (phospho-Smad1/5/8)
Nc1cc(N2CCCCC2)nc(N)[n+]1[O-] [Minoxidil]	significantly lower degree of translocation of β-catenin to the nucleus			
Minoxidil-Nokkin: Minoxidil chemically conjugated to Nokkin peptide of SEQ ID NO: 1 (ELIEHGGGRPAD) (also: minoxidil conjugate, attachment site not given here)		significantly higher than that of Minoxidil	significantly lower than that of the Minoxidil	reduced as compared to the treatment with the Minoxidil
